Paper PMC11274943, “Discovery of Benzisothiazolone Derivatives as Bifunctional Inhibitors of HIV-1 Reverse Transcriptase DNA Polymerase and Ribonuclease H Activities” (Biomolecules, 2024)

Experiments:
Assay type in all cases: biochemical
[1] = biological target: T1, WT HIV-1 RT RNase H activity (Human immunodeficiency virus type 1 group M subtype B, UniProt P04585); experiment: biochemical
T1 construct: made in house
Method: (§1) WT (wild-type) RT, and RTs harboring the NNRTI-resistant mutations K101E, K103N, Y181C, Y188C, G190A and P236L, were overexpressed and purified to homogeneity as described previously. The RT concentration was determined spectrophotometrically at 280 nm using an absorbance coefficient of 260,450 M^−1·cm^−1. The 7-hydroxy tropolone derivative 19,616 (2,7-dihydroxy 2,4,6-cyclo-heptatrien-1-one) was purchased from Molecular Diversity Preservation International (Basel, Switzerland). […] The benzisothiazolone derivatives were procured from MolPort (New York, NY, USA) or Enamine (Kyiv, Ukraine). The DNA and RNA oligonucleotides were synthesized and purified by Integrated DNA Technologies (Coralville, IA, USA). All other reagents were of the highest quality available and were used without further purification.
Compounds were screened at a final concentration of 10 µM in 1× assay buffer (50 mM Tris pH 8.0, 60 mM KCl, 5 mM MgCl2) containing 1% DMSO in 384-well Greiner black polystyrene plates (VWR catalog # 82051-272). A total of 10 µL of intermediate diluted compounds (100 µM in 10% DMSO) was transferred into assay plates using the Evolution-3 (EP3) (Perkin Elmer, Waltham, MA, USA) automated liquid handling platform outfitted with a 384-well transfer head. A total of 40 µL of RT-RNase H enzyme (60 ng per well) were then dispensed into each well using the Titertek MAP-C2 reagent dispenser platform (Huntsville, AL, USA). A total of 50 µL of the RNA/DNA duplex (140 nM) substrate was then dispensed into each well using the MAP-C2 dispenser, and the assay plates were then incubated at room temperature for 20 min. After 20 min, the assay was terminated by the addition of 10 µL of 1 M EDTA pH 9.0 stop buffer. Relative fluorescent unit (RFU) signals, Excitation 490 nm and Emission 528 nm (Cutoff 515 nm), were captured on the Spectromax M5e plate reader (Molecular Devices, Menlo, CA, USA). […] The template also calculated the plate signal-to-background (S:B) ratios (mean maximum signal/mean minimum signal) and Z’-factor coefficient HTS performance statistics.
(§2) The following RNA/DNA T/P substrate was used in the present study: an 18-nucleotide RNA template (RNA-18T: 5′-[…]-3′) was annealed to an 18-nucleotide primer (DNA-18T: 5′-[…]-3′), as described previously. Fluorescein and IowaBlack FQTM were covalently attached to the 3′- and 5′-ter-mini of the RNA and DNA oligonucleotides, respectively.
(§3) The FRET-based RNase H cleavage assays were carried out as described previously. Fluorescence was measured with a SpectraMax M2 microplate spectrofluorometer (Molecular Devices, San Jose, CA, USA) using an excitation wavelength of 490 nm and an emission wavelength of 528 nm. Data were analyzed using SoftMax Pro software, version 4.7.1 (Molecular Devices, San Jose, CA, USA).
We implemented a rapid, robust and inexpensive fluorescence-based 384-well assay for the measurement of RT RNase H activity, previously described by Parniak et al.. The substrate comprises an 18-nucleotide 3′-fluorescein-labeled heteropolymeric RNA annealed to a complementary 5′-dabcyl-modified DNA. RT cleaves the RNA strand of this substrate close to the 3′ end, promoting the dissociation of the fluorescein-labeled RNA fragment and generating a detectable fluorescent signal. We used this HTS assay to screen 65,239 compounds at a final concentration of 10 µM.

[2] = biological target: T2, G190A HIV-1 RT RNase H activity (Human immunodeficiency virus type 1 group M subtype B, UniProt P04585, G777A); experiment: FRET-based RT RNase H cleavage assay, G190A RT
T2 construct: made in house
Method: (§4) WT (wild-type) RT, and RTs harboring the NNRTI-resistant mutations K101E, K103N, Y181C, Y188C, G190A and P236L, were overexpressed and purified to homogeneity as described previously. The RT concentration was determined spectrophotometrically at 280 nm using an absorbance coefficient of 260,450 M^−1·cm^−1. The 7-hydroxy tropolone derivative 19,616 (2,7-dihydroxy 2,4,6-cyclo-heptatrien-1-one) was purchased from Molecular Diversity Preservation International (Basel, Switzerland). Nevirapine was purchased from Selleckchem (Houston, TX, USA). The benzisothiazolone derivatives were procured from MolPort (New York, NY, USA) or Enamine (Kyiv, Ukraine). The DNA and RNA oligonucleotides were synthesized and purified by Integrated DNA Technologies (Coralville, IA, USA). All other reagents were of the highest quality available and were used without further purification.
as §2, §3

[3] = tested on: G190A HIV-1 RT RNase H activity; experiment: FRET-based RT RNase H cleavage assay, G190A RT; conditions: G190A RT; fold resistance IC50 mutant/IC50 WT
Method: as §4, §2, §3

[4] = biological target: T3, K101E HIV-1 RT RNase H activity (Human immunodeficiency virus type 1 group M subtype B, UniProt P04585, K688E); experiment: FRET-based RT RNase H cleavage assay, K101E RT
T3 construct: made in house
Method: as §4, §2, §3

[5] = tested on: K101E HIV-1 RT RNase H activity; experiment: FRET-based RT RNase H cleavage assay, K101E RT; conditions: K101E RT; fold resistance IC50 mutant/IC50 WT
Method: as §4, §2, §3

[6] = biological target: T4, G190A HIV-1 RT DNA-dependent DNA polymerase activity (Human immunodeficiency virus type 1 group M subtype B, UniProt P04585, G777A); experiment: biochemical
T4 construct: made in house
Method: as §1
(§5) DDDP assays were also performed using a QuantiFluor ONE based spectrophotometric assay to detect double-stranded DNA synthesized by recombinant HIV-1 RT [14]. The reaction contained 40 nM of a template/primer comprising a 200 nt DNA template (5′-[…] […]-[…]-[…] […] […]-3′) annealed to an 18-nucleotide DNA primer (5′-[…]-3′), and a mix of 50 mM Tris-HCl pH 7.8, 50 mM NaCl, 10 mM MgCl2 and 50 µM dNTP. The reactions were stopped after 45 min by adding the detection reagent containing 1 × Quant-Fluor One (Promega) and 12.5 mM ethylenediaminetet-raacetic acid; the samples were transferred to a 96-well black plate, and fluorescence was measured at excitation/emission (490/535 nm).

[7] = biological target: T5, K101E HIV-1 RT DNA-dependent DNA polymerase activity (Human immunodeficiency virus type 1 group M subtype B, UniProt P04585, K688E); experiment: biochemical
T5 construct: made in house
Method: as §1, §5

[8] = tested on: P236L HIV-1 RT DNA-dependent DNA polymerase activity; experiment: biochemical; conditions: P236L RT; fold resistance IC50 mutant/IC50 WT
Method: as §1, §5

[9] = biological target: T6, WT HIV-1 RT DNA-dependent DNA polymerase activity (Human immunodeficiency virus type 1 group M subtype B, UniProt P04585); experiment: biochemical
T6 construct: made in house
Method: as §1, §5

Question: What does the source list for Cc1ccc(-n2sc3ccccc3c2=O)cc1S(=O)(=O)N1CCCCC1 [Compound 1, 2-(4-methyl-3-(piperidin-1-ylsulfonyl)phenyl)benzo[d]isothiazol-3(2H)-one]?
Answer: IC50 [1]: 160 ± 30 nM; IC50 [2]: 210 ± 20 nM; Inhibition of RT RNase H Activity Fold-R [3]: 1.3; IC50 [4]: 250 ± 60 nM; Inhibition of RT RNase H Activity Fold-R [5]: 1.6; IC50 [6]: 1600 ± 880 nM; IC50 [7]: 7330 ± 7050 nM; Inhibition of RT DNA polymerase activity Fold-R [8]: 0.4; IC50 [9]: 5970 ± 3100 nM

Question: How did the IC50 [1] turn out when CCN(CC)S(=O)(=O)c1cccc(-n2sc3ccccc3c2=O)c1 [Compound 4, N,N-diethyl-3-(3-oxobenzo[d]isothiazol-2(3H)-yl)benzenesulfonamide] was run?
Answer: 260 ± 80 nM

Question: What about the IC50 [2] of the same compound?
Answer: 310 ± 40 nM

Question: And the “Inhibition of RT RNase H Activity Fold-R” value [3]?
Answer: 1.2

Question: And the IC50 [4]?
Answer: 90 ± 30 nM

Question: What about the “Inhibition of RT RNase H Activity Fold-R” value [5] of the same compound?
Answer: 0.3

Question: And the IC50 [6]?
Answer: 1700 ± 1000 nM

Question: And the IC50 [7]?
Answer: 1800 ± 700 nM

Question: And the “Inhibition of RT DNA polymerase activity Fold-R” value [8]?
Answer: 1.5

Question: And the IC50 [9]?
Answer: 1100 ± 300 nM

Question: With CCOC(=O)Cc1csc(-n2sc3ccccc3c2=O)n1 [Compound 2, ethyl 2-(2-(3-oxobenzo[d]isothiazol-2(3H)-yl)thiazol-4-yl)acetate] as the compound, how does the IC50 [1] read?
Answer: 130 ± 40 nM

Question: What about the IC50 [2] of the same compound?
Answer: 230 ± 20 nM

Question: And the “Inhibition of RT RNase H Activity Fold-R” value [3]?
Answer: 1.8

Question: What about the IC50 [4] of the same compound?
Answer: 280 ± 20 nM

Question: And the “Inhibition of RT RNase H Activity Fold-R” value [5]?
Answer: 2.2

Question: And the IC50 [6]?
Answer: 1930 ± 490 nM

Question: What about the IC50 [7] of the same compound?
Answer: 4880 ± 1560 nM

Question: What about the “Inhibition of RT DNA polymerase activity Fold-R” value [8] of the same compound?
Answer: 1.9

Question: What about the IC50 [9] of the same compound?
Answer: 2640 ± 1850 nM
